According to patent publication US5552405A, “Substituted pyrrolidine derivatives as HIV protease inhibitors” (Bio-Mega/Boehringer Ingelheim Research, Inc., priority 1995, dated 1996):

Assays:
[1] = tested on: HIV (H9/HTLV-IIIB) in HTLV-I transformed C8166 cells; assay: plaque assay, inhibition of HIV (H9/HTLV-IIIB) syncytia formation in C8166 cells; assay type: cell-based; conditions: Human immunodeficiency virus 1, fifty times TCID50, 37°, 72 h, read-out: EC50, concentration of the test compound which causes a 50% inhibition of syncytia formation
Source text: Typical of such procedures are those described by S. Harada and N. Yamamoto, Jpn. J. Cancer Res. (Gann), 76, 432 (1985), and S. Harada et al., Science, 229, 563 (1985). An assay based on the latter procedures is described in the examples hereinafter.
The following protocol, used for screening antiviral effects of the compounds of formula 1, is adapted from a plaque assay utilizing HTLV-I transformed cells, previously reported by Harada et al., supra. HTLV-I transformed cells are used because of the rapidity with which HIV will replicate in the cells.
1. The test compound is dissolved in dimethylsulfoxide to a concentration of 5 mg/mL. The resultant solution can be stored at 4° until use.
2. The resultant solution is diluted in RPMI 1640 (Gibco Laboratories, St. Lawrence, Mass., USA) to four times (4×) the final concentration which is to be tested. Once diluted in RPMI 1640, the solution is used in the cell culture assay within 4 h.
3. The 4×solution (50 μL) is added to triplicate wells of a 96 well flat bottomed microtiter plate. RPMI (50 μL) also is added to control wells.
4. C8166 cells (5×10^4) in […] of HEPES-buffered RPMI 1640 (pH=7.2), 10% heat inactivated fetal calf serum (FCS), […] gentamicin (complete media) are added to all wells.
5. Fifty times TCID50 of H9/HTLV-IIIB stock (stored in liquid nitrogen as cell culture supernatant in 50% FCS) in 100 μL of complete media is added to all wells. Infectious titer of virus stocks are as previously determined by end point dilution on C8166 cells. Titer of stocks are stable for 6-12 months when stored at -193°.
6. Microtiter plates are then placed on level shelves of a 37°, 5% CO2 humidified incubator for 72 h.
7. Plates are then removed and centers of syncytia are counted in each well by low power phase contrast light microscopy. […] Control wells should have between 25 and 75 centers of syncytia per well.
8. Percent inhibition of syncytia formation is calculated by the formula: [formula]
The concentration of the test compound which causes a 50% inhibition of syncytia formation, i.e. the EC50, is determined by using the technique of serial dilution of the working solution at step 3 and graphically plotting the observed percent inhibition of syncytia formation against the various concentrations of the test compound.

HIV protease = biological target: T1, HIV protease (Human immunodeficiency virus type 1 group M subtype B, UniProt P04585); assay: Recombinant HIV Protease HPLC Assay; assay type: biochemical; conditions: recombinant HIV protease expressed in E. coli; substrate VSFNFPQITL-NH2; pH 5.5; 37°, 30 min; read-out: IC50, concentration of the test compound which causes a 50% inhibition of the HIV-protease
T1 construct: HIV protease was expressed in E. coli; made in house; host or cells: E. coli
Source text: The procedure is based on the capacity of the test compound to inhibit enzymatic cleavage by HIV protease of a decapeptide (the substratel having an amino acid sequence which includes a known HIV protease cleavage site of a HIV polyprotein; see H. G. Krausslich et al., Proc. Natl. Acad. Sci. U.S.A., 86, 807 (1989). Details of this assay together with the results obtained for exemplified compounds of formula 1 are described in the examples hereinafter.
Enzyme: HIV protease was expressed in E. coli {construct pBRT1 prt^+, see W. G. Farmerie et al., Science, 236, 305 (1987)}, according to the following protocol: Unless stated otherwise, all solutions are aqueous solutions.
E. coli cells containing the pBRT1 prt^+ plasmid were used to inoculate a seed culture media composed of Luria-Bertani Broth containing 100 μg/mL of ampicillin. Flasks were incubated at 37° under agitation for 17 h. Production flasks containing sterile M9 broth, supplemented with 100 μg/mL of ampicillin, were inoculated at a level of 1% (v/v) using the seed culture described above. Total volume in each production flask was 500 mL in a 2 L Erlenmeyer flask. Flasks were incubated at 37° under agitation until a cell concentration corresponding to an optical density (λ=540 μm) of 0.6 was reached (no dilution). This time span was routinely 3-4 h. Flasks were then supplemented with 5 mM isopropylthiogalactoside (IPTG, Research Organics, Cleveland, Ohio, USA) and incubation was continued until the cell concentration reached an optical density of 0.2 at 16-fold dilution. Flasks were then supplemented with 1 mM phenylmethylsulfonyl fluoride (PMSF) and rapidly chilled to 4°. The bacterial cells were recovered by centrifugation at 4°. The wet pellet was stored at -70°.
All steps below were perfomed at 4° unless otherwise indicated. Thawed cells were mixed with buffer A {50 mM tris(hydroxymethyl)aminoethane HCl (Tris-HCl, pH 7.4); 0.6 mM ethylenediaminetetraacetic acid (EDTA); 0.375M NaCl, 0.2% Nonidet P-40® (BDH Chemicals Ltd., Poole, UK); 1 mM PMSF}, at a ratio of one part cells to nine parts buffer A. Diatomaceous earth (Celite 545® John Manville, Lompoc, Calif. U.S.A.) was added at a ratio of two parts to one part of wet cell weight. The resulting slurry was homogenized at high speed (ca. 20,000 rpm) on a Waring® industrial blender for 8×15 sec. pulses. Cell debris/Celite® was collected by centrifugation and the resulting pellet was extracted with 4.5 parts of buffer A to one part wet solids using the homogenization procedure described above. Supernatants from both homogenization steps were combined and soluble protein was precipitated by the addition of solid (NH4)2 SO4 to yield a final concentration of 75% saturation. This mixture was agitated for 60 min and the precipitate was recovered by centrifugation. The resulting pellet was suspended in buffer B {50 mM Tris-HCl, pH 8; 30 mM NaCl; 1 mM DL-dithiothreitol (DTT); 1 mM EDTA; mM PMSF; 10% glycerol}, and dialyzed for 18 h against the same buffer.
An aliquot of the dialyzed extract containing 150 mg of the protein was loaded onto a Sephadex A25® anion exchange column (Pharmacia, Uppsala, Sweden) with bed dimensions of 70 cm length and 2.5 cm diameter. The sample was eluted isocratically with buffer B at a linear flow rate of 10 cm/h. Fractions containing HIV protease activity (see below for assay description) were combined, and soluble protein was precipitated by the addition of saturated aqueous (NH4)2 SO4 to yield a total (NH4)2 SO4 concentration of 85% saturation. Precipitated protein was removed by centrifugation and the resulting pellet was dissolved in buffer C {50 mM 2-(4-morpholino)ethanesulfonic acid (MES), pH 5.5; 150 mM NaCl; 1 mM DTT; 1 mM EDTA; 10% glycerol}. This preparation was dialyzed for 18 h against buffer C, and then frozen at -70°. All crude extracts were purified by chromatography in aliquots containing 150 mg of protein in the same manner as described above. […]

| Structure (SMILES) | EC50 [1] [nM] | IC50 (HIV protease) [nM] |
| --- | --- | --- |
| CC(C)[C@H](NC(=O)c1ccc2ccccc2n1)C(=O)N[C@@H](Cc1ccccc1)[C@H](O)CN1C[C@H](Sc2ncccn2)C[C@H]1C(=O)NC(C)(C)C [Table I Entry 10, N-tert-butyl-1-{2(R)-hydroxy-4-phenyl-3(S)-{{N-(2-quinolinylcarbonyl)valyl}amino}butyl}-4(R)-(2-pyrimidinylthio)pyrrolidine-2(S)-carboxamide] | 250 | – |
| CC(C)(C)NC(=O)[C@@H]1C[C@@H](OCc2ccccc2)CN1C[C@@H](O)[C@H](Cc1ccccc1)NC(=O)[C@H](CC(N)=O)NC(=O)OCc1ccccc1 [Table I Entry 3, 4(R)-Benzyloxy-1-{3(S)-{{N-(benzyloxycarbonyl)asparaginyl}amino}-2(R)-hydroxy-4-phenylbutyl}-N-tert-butylpyrrolidine-2(S)-carboxamide] | 600 | 39 |
| CC(C)[C@H](NC(=O)c1ccc2ccccc2n1)C(=O)N[C@@H](Cc1ccccc1)[C@H](O)CN1C[C@H](Sc2ncccn2)C[C@H]1C(=O)NC(C)(C)C [Entry 10] | – | 4.7 |
| CC(C)CO[C@H]1C[C@@H](C(=O)NC(C)(C)C)N(C[C@@H](O)[C@H](Cc2ccccc2)NC(=O)[C@@H](NC(=O)OCc2ccccc2)C(C)C)C1 [Table I Entry 5, 1-{3(S)-{{N-(benzyloxycarbonyl)valyl}amino}-2(R)-hydroxy-4-phenylbutyl}-N-tert-butyl-4(S)-(2-methylpropyloxy)pyrrolidine-2(S)-carboxamide] | – | 745 |
| CC(C)[C@H](NC(=O)OCc1ccccc1)C(=O)N[C@@H](Cc1ccccc1)[C@H](O)CN1C[C@H](OCc2ccccc2)C[C@H]1C(=O)NC(C)(C)C [Entry 2] | – | 16 |
| CC(C)[C@H](NC(=O)OCc1ccccc1)C(=O)N[C@@H](Cc1ccccc1)[C@H](O)CN1C[C@H](OCc2ccccc2)C[C@H]1C(=O)NC1CC1 [Table I Entry 7, 4(R)-Benzyloxy-1-{3(S)-{{N-(benzyloxycarbonyl)valyl}amino}-2(R)-hydroxy-4-phenylbutyl}-N-cyclopropylpyrrolidine-2(S)-carboxamide] | 900 | 100 |
| CC(C)(C)NC(=O)[C@@H]1C[C@H](Cc2ccccc2)CN1C[C@@H](O)[C@H](Cc1ccccc1)NC(=O)[C@H](CC(N)=O)NC(=O)OCc1ccccc1 [Table I Entry 9, 4(S)-Benzyl-1-{3(S)-{{N-(benzyloxycarbonyl)asparaginyl}amino}-2(R)-hydroxy-4-phenylbutyl}-N-tert-butylpyrrolidine-2(S)-carboxamide] | 4000 | 780 |
| Cc1cccc(C)c1OCC(=O)N[C@@H](Cc1ccccc1)[C@H](O)CN1C[C@H](Sc2ncccn2)C[C@H]1C(=O)NC(C)(C)C [Entry 13] | – | 4.6 |
| CC(C)[C@H](NC(=O)c1ccc2ccccc2n1)C(=O)N[C@@H](Cc1ccccc1)[C@H](O)CN1C[C@H](SCc2cccnc2)C[C@H]1C(=O)NC(C)(C)C [Table I Entry 11, N-tert-butyl-1-{2(R)-hydroxy-4-phenyl-3(S)-{{N-(2-quinolinylcarbonyl)valyl}amino}butyl}-4(R)-{(3-pyridinylmethyl)thio}pyrrolidine-2(S)-carboxamide] | 480 | 12 |
| CC(C)(C)NC(=O)[C@@H]1C[C@H](OCc2ccccc2)CN1C[C@@H](O)[C@H](Cc1ccccc1)NC(=O)[C@H](CC(N)=O)NC(=O)OCc1ccccc1 [Table I Entry 4, 4(S)-Benzyloxy-1-{3(S)-{{N-(benzyloxycarbonyl)asparaginyl}amino}-2(R)-hydroxy-4-phenylbutyl}-N-tert-butylpyrrolidine-2(S)-carboxamide] | – | 300 |
| Cc1cc(O[C@@H]2C[C@@H](C(=O)NC(C)(C)C)N(C[C@@H](O)[C@H](Cc3ccccc3)NC(=O)[C@@H](NC(=O)c3ccc4ccccc4n3)C(C)C)C2)nc(C)n1 [Table I Entry 12, N-tert-butyl-1-{2(R)-hydroxy-4-phenyl-3(S)-{{N-(2-quinolinylcarbonyl)valyl}amino}butyl}-4(R)-{(2,6-dimethyl-4-pyrimidinyl)oxy}pyrrolidine-2(S)-carboxamide] | 390 | 9.4 |
| CC(C)CO[C@@H]1C[C@@H](C(=O)NC(C)(C)C)N(C[C@@H](O)[C@H](Cc2ccccc2)NC(=O)[C@@H](NC(=O)OCc2ccccc2)C(C)C)C1 [Table I Entry 6, 1-{3(S)-{{N-(benzyloxycarbonyl)valyl}amino}-2(R)-hydroxy-4-phenylbutyl}-N-tert-butyl-4(R)-(2-methylpropyloxy)pyrrolidine-2(S)-carboxamide] | 3000 | 180 |
| CC(C)(C)NC(=O)[C@@H]1C[C@@H](Cc2ccccc2)CN1C[C@@H](O)[C@H](Cc1ccccc1)NC(=O)[C@H](CC(N)=O)NC(=O)OCc1ccccc1 [Table I Entry 8, 4(R)-Benzyl-1-{3(S)-{{N-(benzyloxycarbonyl)asparaginyl}amino}-2(R)-hydroxy-4-phenylbutyl}-N-tert-butylpyrrolidine-2(S)-carboxamide] | 700 | 48 |
| Cc1cccc(C)c1OCC(=O)N[C@@H](Cc1ccccc1)[C@H](O)CN1C[C@H](Sc2ncccn2)C[C@H]1C(=O)NC(C)(C)C [Table I Entry 13, N-tert-butyl-1-{3(S)-{{(2,6-dimethylphenoxy)acetyl}amino}-2(R)-hydroxy-4-phenylbutyl}-4(R)-(2-pyrimidinylthio)pyrrolidine-2(S)-carboxamide] | 250 | – |
| Cc1cccc(C)c1OCC(=O)N[C@@H](Cc1ccccc1)[C@H](O)CN1C[C@H](SCc2cccnc2)C[C@H]1C(=O)NC(C)(C)C [Entry 14] | – | 43 |
